Structures are written as SMILES.

The target of this experiment is Nischarin (Rattus norvegicus, UniProt Q4G017). Kind of experiment: Binding affinity to I1 imidazoline binding site in Rattus norvegicus (rat) PC12 cells. In kind it is cell-based, PC-12.
Nischarin, sequence (Q4G017 whole entry): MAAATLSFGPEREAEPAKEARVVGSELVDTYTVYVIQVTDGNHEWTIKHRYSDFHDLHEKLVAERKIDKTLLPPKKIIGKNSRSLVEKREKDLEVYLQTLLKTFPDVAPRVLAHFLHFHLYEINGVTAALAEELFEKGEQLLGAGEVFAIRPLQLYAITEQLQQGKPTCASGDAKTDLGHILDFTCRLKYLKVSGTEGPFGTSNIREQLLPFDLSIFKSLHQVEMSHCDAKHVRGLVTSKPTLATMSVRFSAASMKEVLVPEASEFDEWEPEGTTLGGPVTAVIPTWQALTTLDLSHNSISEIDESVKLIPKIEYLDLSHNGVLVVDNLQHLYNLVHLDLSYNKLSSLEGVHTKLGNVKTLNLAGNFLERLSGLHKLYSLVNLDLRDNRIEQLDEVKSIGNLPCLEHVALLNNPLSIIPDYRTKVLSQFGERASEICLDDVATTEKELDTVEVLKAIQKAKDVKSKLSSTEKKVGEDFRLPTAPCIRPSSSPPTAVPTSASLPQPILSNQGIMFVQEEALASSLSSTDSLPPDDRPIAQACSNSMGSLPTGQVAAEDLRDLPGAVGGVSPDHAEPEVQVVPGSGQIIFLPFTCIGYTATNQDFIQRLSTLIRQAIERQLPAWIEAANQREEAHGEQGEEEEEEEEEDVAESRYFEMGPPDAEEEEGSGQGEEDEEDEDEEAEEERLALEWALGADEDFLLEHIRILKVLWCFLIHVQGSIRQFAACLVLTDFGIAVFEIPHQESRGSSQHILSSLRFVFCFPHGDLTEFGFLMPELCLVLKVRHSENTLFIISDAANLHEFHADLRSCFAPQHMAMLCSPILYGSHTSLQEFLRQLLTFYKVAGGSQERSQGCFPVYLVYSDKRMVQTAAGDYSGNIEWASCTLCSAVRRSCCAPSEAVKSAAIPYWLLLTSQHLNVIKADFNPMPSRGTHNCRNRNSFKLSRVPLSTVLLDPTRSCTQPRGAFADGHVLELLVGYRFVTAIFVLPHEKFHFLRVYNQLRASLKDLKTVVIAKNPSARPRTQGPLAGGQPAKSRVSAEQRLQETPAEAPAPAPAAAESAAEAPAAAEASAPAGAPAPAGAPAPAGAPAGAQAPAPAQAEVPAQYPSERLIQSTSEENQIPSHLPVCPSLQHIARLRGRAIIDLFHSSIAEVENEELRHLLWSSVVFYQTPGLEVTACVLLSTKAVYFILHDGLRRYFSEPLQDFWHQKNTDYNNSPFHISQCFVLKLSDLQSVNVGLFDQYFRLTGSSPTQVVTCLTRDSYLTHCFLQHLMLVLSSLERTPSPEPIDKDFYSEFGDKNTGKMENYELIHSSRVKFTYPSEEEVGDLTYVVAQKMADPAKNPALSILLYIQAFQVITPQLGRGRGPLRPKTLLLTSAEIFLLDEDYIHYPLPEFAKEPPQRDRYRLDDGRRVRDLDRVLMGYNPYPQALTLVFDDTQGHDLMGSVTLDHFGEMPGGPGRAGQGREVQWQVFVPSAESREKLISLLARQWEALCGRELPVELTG
The Ki is the equilibrium dissociation constant of an inhibitor or competing ligand from its target. The low end stands for tighter binding, the high end for weaker binding. In turn, `c1ccc(NCC2=NCCN2)cc1` [PHENAMAZOLINE] showed a Ki of 0.501 nM.

Compound `c1ccc(C(CC2=NCCN2)c2ccccc2)cc1` had a Ki of 3090 nM. The figure for `c1ccc(-c2ccccc2OCC2=NCCN2)cc1` is 2.34 nM. In turn, `C1COC(NC(C2CC2)C2CC2)=N1` [RILMENIDINE] had a Ki of 11.2 nM. Consider `c1ccc([C@@H]2C[C@H]2C2=NCCN2)cc1`, for which the Ki is 347 nM.

For `C[C@@H](CC1=NCCN1)c1ccccc1`, the Ki was 7240 nM. The figure for `c1ccc2cc(C3=NCCN3)ccc2c1` [BENAZOLINE] is 1.29 nM; for `Clc1cc(I)cc(Cl)c1N=C1NCCN1` [PI-CLONIDINE] it is 0.0339 nM; for `C1CN=C(NC(C2CC2)C2CC2)C1` it is 513 nM. The value for `c1ccc(-c2ccccc2NCC2=NCCN2)cc1` was 0.933 nM.

For the compound `C[C@@H](Oc1ccccc1-c1ccccc1)C1=NCCN1`, the affinity, expressed as Ki, was 3.98 nM.

`Clc1cccc2c1CN(NC1=NCCN1)C2`: the Ki is 6.92 nM. The value for `C[C@H](Oc1ccccc1-c1ccccc1)C1=NCCN1` was 129 nM.

`c1ccc([C@H]2C[C@@H]2C2=NCCN2)cc1` showed a Ki of 11.7 nM.

`c1ccc(CCC2=NCCN2)cc1` [PHENYZOLINE]: the Ki is 3720 nM. `c1ccc(-c2ccccc2CCC2=NCCN2)cc1` showed a Ki of 3240 nM. The figure for `c1ccc(C2CC2)c(OCC2=NCCN2)c1` [CIRAZOLINE] is 1740 nM; for `c1ccc2c(CC3=NCCN3)cccc2c1` [NAPHAZOLINE] it is 245 nM.

`C(=C\c1ccccc1)/C1=NCCN1` [TRACIZOLINE] had an inhibition constant (Ki) of 18.6 nM. The figure for `C[C@H](CC1=NCCN1)c1ccccc1` is 589 nM; for `Clc1cccc(Cl)c1N=C1NCCN1` [CLONIDINE] it is 112 nM.

(Values after ChEMBL document CHEMBL3046493, “Alpha2-Adrenergic Receptors in Intestinal Epithelial Cells: Mechanisms of Signaling, Role, and Regulation” (Med Chem Res, 2004).)
